The results in this text go back to patent US11866407B2 (priority 2021, dated 2024).

Read-outs that look alike come from different tables or passages of the source. Residues, ends and D or L forms follow the SMILES beside them. *: point of attachment. Cbz = O=C(OCc1ccccc1)*; CH2F = FC*

One data set concerns the target SARS-CoV-2 M^pro (Severe acute respiratory syndrome coronavirus 2, UniProt P0DTD1). Briefly: FRET-based enzymatic assay, SARS-CoV-2 Mpro. Format: biochemical.
Data set [1] is described as follows: Cytotoxicity in Calu-3 cells. Conditions: human. Type of data set: cell-based.
The nature of data set [2]: Cytotoxicity in Vero E6 cells. Conditions: African green monkey.
The target of another data set is PL^pro (Severe acute respiratory syndrome coronavirus 2, UniProt P0DTD1). The data set is described as follows: PLpro protease inhibition (Table 2). Format: biochemical, SARS-CoV-2.
Data set [3] can be described thus: in vitro. The following applies: African green monkey.
The test system of data set [4] is SARS-CoV-2. The data set is described as follows: Antiviral activity in Calu-3 cells (Table 2). Conditions: Severe acute respiratory syndrome coronavirus 2, Calu-3. Type of data set: cell-based.
Data set [5] is described as follows: in vitro. Conditions: human.
Data set [6] is described as follows: in vitro. The following applies: human, Caco-2.
A further data set addresses T1, calpain I (Homo sapiens, UniProt P07384).
T1 construct: purchased Sigma-Aldrich C6108
T1 sequence (P07384 1-714): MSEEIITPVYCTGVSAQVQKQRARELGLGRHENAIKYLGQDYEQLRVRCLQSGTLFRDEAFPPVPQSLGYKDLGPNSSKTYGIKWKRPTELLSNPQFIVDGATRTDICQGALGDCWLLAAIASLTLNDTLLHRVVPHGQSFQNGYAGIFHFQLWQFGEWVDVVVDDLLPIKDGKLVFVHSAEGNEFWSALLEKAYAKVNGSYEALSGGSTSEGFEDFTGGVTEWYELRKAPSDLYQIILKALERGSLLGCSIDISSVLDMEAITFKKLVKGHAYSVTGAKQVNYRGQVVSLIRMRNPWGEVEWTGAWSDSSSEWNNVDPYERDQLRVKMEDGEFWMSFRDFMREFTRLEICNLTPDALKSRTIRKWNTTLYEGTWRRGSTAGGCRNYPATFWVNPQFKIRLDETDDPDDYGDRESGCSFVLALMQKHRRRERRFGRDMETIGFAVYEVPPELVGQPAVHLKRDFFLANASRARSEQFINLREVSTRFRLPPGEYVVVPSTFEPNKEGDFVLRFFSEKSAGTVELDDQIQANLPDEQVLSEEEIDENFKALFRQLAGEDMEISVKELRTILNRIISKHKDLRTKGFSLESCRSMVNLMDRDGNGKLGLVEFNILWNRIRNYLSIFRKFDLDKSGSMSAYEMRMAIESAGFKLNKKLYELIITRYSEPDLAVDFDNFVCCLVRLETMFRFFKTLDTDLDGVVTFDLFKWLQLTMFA
T1 sequence (P04632 1-268 partner): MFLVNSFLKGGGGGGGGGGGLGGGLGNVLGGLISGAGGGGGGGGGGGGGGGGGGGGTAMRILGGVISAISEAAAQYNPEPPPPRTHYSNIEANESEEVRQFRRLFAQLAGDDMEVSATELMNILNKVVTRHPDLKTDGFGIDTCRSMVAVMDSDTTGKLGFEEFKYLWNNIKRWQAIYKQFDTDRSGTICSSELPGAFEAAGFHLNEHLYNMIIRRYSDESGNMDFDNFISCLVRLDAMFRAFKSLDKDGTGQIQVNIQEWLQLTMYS
The data set is described as follows: Calpain I enzymatic assay. Type of data set: biochemical. As for the experimental part:
(§1) Calpain I, Cathepsin L and Cathepsin K enzymatic assays were carried as previously described.^33

Another data set addresses T2, cathepsin L (Homo sapiens, UniProt P07711).
T2 construct: purchased EMD Millipore 219402
The data set is described as follows: Cathepsin L enzymatic assay. Type of data set: biochemical. As for the experimental part: as §1

The test system of data set [7] is SARS-CoV-2. Briefly: SARS-CoV-2 antiviral immunofluorescence assay. Type of data set: cell-based. The following applies: both cell lines (Vero E6 and Caco2-ACE2).
The next data set has as its system HCoV-OC43. Briefly: HCoV-OC43 plaque assay. Conditions: Betacoronavirus 1, OC43, RD cells. Format: cell-based.
Data set [8] has as its system M^pros from all seven human coronaviruses. Briefly: Thermal shift binding assay (DSF). The following applies: indicating protein stabilization.
A further data set has as its system HCoV-229E. Briefly: HCoV-229E CPE assay. Type of data set: cell-based. The following applies: Human coronavirus 229E.
A further data set relates to HCoV-NL63. Briefly: HCoV-NL63 CPE assay. Type of data set: cell-based. Conditions: with vs without CP-100356.
A further data set addresses T3, caspase-3 (Homo sapiens, UniProt P42574).
T3 construct: purchased BioVision 1083-25
T3 sequence (P42574 29-175 limits assumed): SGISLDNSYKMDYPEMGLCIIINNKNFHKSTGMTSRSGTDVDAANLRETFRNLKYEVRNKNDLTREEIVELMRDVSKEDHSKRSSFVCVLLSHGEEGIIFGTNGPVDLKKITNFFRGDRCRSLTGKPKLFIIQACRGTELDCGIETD
T3 sequence (P42574 176-277 limits assumed): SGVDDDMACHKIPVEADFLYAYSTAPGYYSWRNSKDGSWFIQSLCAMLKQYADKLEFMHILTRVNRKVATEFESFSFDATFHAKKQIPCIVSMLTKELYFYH
Briefly: Caspase-3 enzymatic assay. Format: biochemical. As for the experimental part: Caspase-3 enzymatic assay was carried out as follows: 1 unit Caspase-3 protein was diluted into 1600 μl reaction buffer (20 mM HEPES pH7.4, 2 mM EDTA, 0.1% CHAPS and 5 mM DTT); 100 μl diluted protein was incubated with 1 μl various concentration of testing compounds for 30 min at 30° C.; the enzymatic reaction was initiated by adding 1 μl of 2 mM Ac-DEVD-AFC (Medchemexpress, Catalog #HY-P1005). The reaction was monitored a Molecular Devices SpectraMax iD3 plate reader with excitation at 400 nm and emission at 505 nm at 30° C. for 1 hour. The IC50 values were calculated as described in the previous section.

T2 sequence (P07711 114-333): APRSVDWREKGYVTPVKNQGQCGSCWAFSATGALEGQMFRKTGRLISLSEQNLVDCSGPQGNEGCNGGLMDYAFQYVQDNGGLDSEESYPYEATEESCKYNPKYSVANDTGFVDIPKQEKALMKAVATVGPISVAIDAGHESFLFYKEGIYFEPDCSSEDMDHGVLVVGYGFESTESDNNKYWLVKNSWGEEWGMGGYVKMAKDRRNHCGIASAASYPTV

The term IC50 denotes the concentration at which inhibition is half-maximal. In turn, `CC(C)C[C@H](NC(=O)OCc1ccc(NC(=O)CCC(=O)NCCOCCOCCNc2cccc3c2C(=O)N(C2CCC(=O)N(C)C2=O)C3=O)cc1)C(=O)N[C@@H](C[C@@H]1CCNC1=O)C(=O)C(=O)NC1CC1` (stereo partly shown) came in with an IC50 against SARS-CoV-2 M^pro of 110 nM.
With `CC(C)C[C@H](NC(=O)OCc1ccc(NC(=O)CCC(=O)NCCOCCOCCNc2cccc3c2C(=O)N(C2CCC(=O)NC2=O)C3=O)cc1)C(=O)N[C@@H](C[C@@H]1CCNC1=O)C(=O)C(=O)NC1CC1` (stereo partly shown), the CC50 in data set [1] and in data set [2] was more than 250000 nM throughout. The IC50 was more than 20000 nM against PL^pro and 110 nM against SARS-CoV-2 M^pro.
Consider `C#CCCC(=O)Nc1ccc(COC(=O)N[C@@H](CC(C)C)C(=O)N[C@@H](C[C@@H]2CCNC2=O)C(=O)C(=O)NC2CC2)cc1`, for which the CC50 in data set [1] and in [2] was more than 250000 nM throughout. In addition, the concentration for half-maximal inhibition (IC50) was more than 20000 nM on PL^pro and 150 nM against SARS-CoV-2 M^pro.
As for `O=C(NC1CC1)C(=O)[C@H](C[C@@H]1CCNC1=O)NC(=O)C1[C@H]2CCC[C@H]2CN1C(=O)OCc1ccccc1` (stereo partly shown), the CC50 in the data set “in vitro [3]” is more than 250000 nM. Also, the IC50 at SARS-CoV-2 M^pro was 130 nM.
`CC1(C)[C@@H]2C(C(=O)N[C@@H](C[C@@H]3CCNC3=O)C(=O)C(=O)NC3CC3)N(C(=O)OCc3ccccc3)C[C@@H]21` (stereo partly shown) displayed a CC50 in the data set “in vitro [3]” of more than 250000 nM. This compound yielded an IC50 at SARS-CoV-2 M^pro of 200 nM.
The EC50 is the concentration needed to bring the measured effect to its halfway point. `CC(C)C[C@H](NC(=O)OCC1CCC(F)(F)CC1)C(=O)N[C@@H](C[C@@H]1CCNC1=O)C(=O)C(=O)NC1CC1` registered an EC50 with SARS-CoV-2 [4] of 2600 nM. The compound also registered a CC50 in the data set “in vitro [3]” of more than 250000 nM. This compound also returned an IC50 against SARS-CoV-2 M^pro of 60 nM.
With `O=C(N[C@H](C(=O)N[C@@H](C[C@@H]1CCNC1=O)C(=O)C(=O)NC1CC1)C1CCCCC1)OCc1ccccc1`, the values for the IC50 against PL^pro and against SARS-CoV-2 M^pro were more than 20000 nM and 380 nM, respectively.
For the compound `CC(C)C[C@H](NC(=O)[C@H](Cc1ccccc1)NC(=O)OCc1ccccc1)C(=O)N[C@@H](C[C@@H]1CCNC1=O)C(=O)C(=O)NC(C)C`, the IC50 on PL^pro is more than 20000 nM; at SARS-CoV-2 M^pro, 130 nM.
Consider `CC(C)C[C@H](NC(=O)[C@H](Cc1ccccc1)NC(=O)OCc1ccccc1)C(=O)N[C@@H](C[C@@H]1CCNC1=O)C(=O)C(=O)NCc1ccccc1`, for which the IC50 was more than 20000 nM at PL^pro and 90 nM against SARS-CoV-2 M^pro.
`CC(C)[C@H](NC(=O)OCc1ccccc1)C(=O)N[C@@H](C[C@@H]1CCNC1=O)C(=O)C(=O)NC1CC1` registered an IC50 at SARS-CoV-2 M^pro of 1290 nM.
In the case of `O=C(N[C@@H](Cc1ccc(F)cc1)C(=O)N[C@@H](C[C@@H]1CCNC1=O)C(=O)C(=O)NC1CC1)OCc1ccccc1`, the IC50 at SARS-CoV-2 M^pro was determined as 5500 nM.
As to `O=C(N[C@@H](Cc1ccccc1)C(=O)N[C@@H](C[C@@H]1CCNC1=O)C(=O)C(=O)NC1CC1)OCc1ccccc1`, the CC50 in the data set “in vitro [5]” and in the data set “in vitro [6]” was more than 100000 nM throughout. On SARS-CoV-2 M^pro, this compound gave an IC50 of 780 nM.
As for `CC(C)C[C@H](NC(=O)OCc1ccccc1)C(=O)N[C@@H](C[C@@H]1CCNC1=O)C(=O)C(=O)NC1CC1`, the CC50 in “in vitro [5]” and in the data set “in vitro [6]” was more than 100000 nM each time. Moreover, at SARS-CoV-2 M^pro (read-out: SARS-CoV-2 M^pro IC50, Table 2), the IC50 worked out at 45 nM.
In the case of `CCOC(=O)/C=C/[C@H](C[C@@H]1CCNC1=O)NC(=O)[C@H](CC(C)C)NC(=O)OCc1ccccc1`, 1710 nM corresponded to half-maximal inhibition on SARS-CoV-2 M^pro (IC50).
The compound `CC(C)C[C@H](NC(=O)OCc1ccccc1)C(=O)N[C@@H](CC(C)C)C(=O)N[C@@H](C[C@@H]1CCNC1=O)C(=O)C(=O)NC1CC1` had an IC50 against SARS-CoV-2 M^pro of 12 nM.
On SARS-CoV-2 M^pro, `CC(C)C[C@H](NC(=O)[C@@H](NC(=O)OCc1ccccc1)C(C)C)C(=O)N[C@@H](C[C@@H]1CCNC1=O)C(=O)C(=O)NC1CC1` gave an IC50 of 14 nM.
Consider `CC(C)C[C@H](NC(=O)[C@H](Cc1ccccc1)NC(=O)OCc1ccccc1)C(=O)N[C@@H](C[C@@H]1CCNC1=O)C(=O)C(=O)NC1CC1`, for which the IC50 at SARS-CoV-2 M^pro is 13 nM.
Regarding `O=C(N[C@@H](Cc1ccccc1)C(=O)N[C@@H](C[C@@H]1CCNC1=O)C(O)S(=O)(=O)[O][Na+])OCc1ccccc1` (stereo partly shown), the IC50 against SARS-CoV-2 M^pro worked out at 40 nM.
Turning to `CC(C)C[C@H](NC(=O)OCc1ccccc1)C(=O)N[C@@H](CC1CCNC1=O)C(O)S(=O)(=O)O` (stereo partly shown) [GC-376], the figures for the IC50 against calpain I and on cathepsin L were 74 nM and 4.4 nM, respectively.
As for `O=CC(CC1CCNC1=O)NC(=O)C1C2CCCC2CN1C(=O)OCc1ccccc1` (stereo not shown) [UAWJ9-36-1], the “antiviral potency against SARS-CoV-2 relative to GC-376” value with SARS-CoV-2 [7] was “less potent than GC-376”. Besides, the EC50 came to 46 nM in the data set on HCoV-OC43 and 170 nM in the data set on HCoV-229E. For the same compound, the “melting temperature shift (ΔTm)” value in data set [8] is listed as “significantly increased”. The “antiviral activity against HCoV-NL63 in Vero E6 cells in the presence of P-gp inhibitor CP-100356” value in the data set with HCoV-NL63 is recorded as “increased”.
Turning to `CC1(C)C2CN(C(=O)OCc3ccccc3)C(C(=O)NC(C=O)CC3CCNC3=O)C21` (stereo not shown) [UAWJ9-36-3], the EC50 came to 59 nM in the data set with HCoV-OC43 and 130 nM with HCoV-229E. Further, the “antiviral activity against HCoV-NL63 in Vero E6 cells in the presence of P-gp inhibitor CP-100356” value in the data set on HCoV-NL63 is reported as “increased”.
As for `COC(=O)C[C@H](NC(=O)[C@H](C)NC(=O)[C@@H](NC(=O)OCc1ccccc1)C(C)C)C(=O)CF` [Z-VAD-FMK] (Cbz-Val-Ala-Asp(OMe)-CH2F), on caspase-3, the half-maximal inhibitory concentration (IC50) came out at 100 ± 40 nM.
